Among the data in publication PMC7226869 (ACS Omega, 2020) are Kd, inhibition and IC50 values, retold here.

For experiment [1], the target named is T1, New Delhi metallo-β-lactamase-1 (NDM-1) (Klebsiella pneumoniae, UniProt E9NWK5). In words: 1H-15N HSQC NMR titration. The class given is binding.
In another experiment the target is KPC-2 (Klebsiella pneumoniae, UniProt Q93LQ9). In words: carbapenemase inhibition at a single concentration. The class given is biochemical. The following applies: read-out: % inhibition at 50 μM.
Experiment [2] addresses T1, New Delhi metallo-β-lactamase-1 (NDM-1). The experiment in a line: imipenem hydrolysis by purified NDM-1. The class given is biochemical.
The next experiment addresses OXA-48 (Klebsiella pneumoniae, UniProt Q6XEC0). In words: carbapenemase inhibition at a single concentration. The class given is biochemical. The following applies: read-out: % inhibition at 50 μM.
The target of experiment [3] is T1, New Delhi metallo-β-lactamase-1 (NDM-1). In words: imipenem hydrolysis by purified NDM-1. The class given is biochemical. The source holds these as a separate data set.

Molecules are shown by their SMILES. pIC50, pKd: −log10 of the molar value. Like-named read-outs stand apart in the source and are kept apart here.

Chain of OXA-48 (Q6XEC0 23-265 limits assumed): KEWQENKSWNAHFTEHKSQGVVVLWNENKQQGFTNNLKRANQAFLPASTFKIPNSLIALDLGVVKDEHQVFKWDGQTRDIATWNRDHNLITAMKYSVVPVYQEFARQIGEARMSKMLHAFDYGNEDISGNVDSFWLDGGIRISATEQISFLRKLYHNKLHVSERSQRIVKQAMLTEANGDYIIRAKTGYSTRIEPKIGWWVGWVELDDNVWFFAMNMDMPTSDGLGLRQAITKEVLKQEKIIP

As for `O=c1c(O)c(-c2ccc(O)cc2O)oc2cc(O)cc(O)c12` [morin], the pKd – broadly, the Kd on a negative log10 scale, so that one unit is a factor of ten – in experiment [1] was about 3.52.
In the case of `O=c1c(O)c(-c2cc(O)c(O)c(O)c2)oc2cc(O)cc(O)c12` [myricetin], the inhibition (as a rule, how much of the control response was suppressed) at 50 µM at KPC-2 was 78%; on OXA-48, 90%. Besides, the pIC50 (usually the IC50 on a negative log10 scale, so that one unit is a factor of ten) in experiment [2] is 5.48.
`O=c1c(O)c(-c2ccc(O)c(O)c2)oc2cc(O)cc(O)c12` [quercetin] had a pIC50 in experiment [3] of 5.00 to 5.30.
